Data on 10 compounds can be found in PMC7037548, “Microbial Transformation of Prenylquercetins by Mucor hiemalis” (Molecules, 2020).

The series is described as follows: Water solubility test. To be noted: for solubility at 10 min: water, thermodynamic from solid. The format is physicochemical. The protocol: The solubility of prenylquercetins and their glucosides were determined based on the previously reported method with some modifications. Briefly, each compound (4 mg) was dissolved in 1 mL of distilled water at room temperature followed by sonication for 10 min and centrifugation at 3600 rpm for 5 min at room temperature. Then the concentrations of the compounds in the supernatant were measured based on their peak areas utilizing calibration curves determined by the HPLC of authentic samples.

The structures appear in SMILES notation. Converted amounts (≈) assume the structure as drawn. A value given as a limit tells only on which side of the number the result lay.

As usually defined, the solubility is the concentration that dissolves in the medium under given conditions. A higher solubility goes with a readily soluble substance. `CC(C)=CCc1c(O)cc(O)c2c(=O)c(O)c(-c3ccc(O)c(O)c3)oc12` [Compound 1, 8-prenylquercetin] registered a solubility at 10 min of 13 µg/mL (≈ 35.1 µM).

On to `CC(C)=CCc1cc(O[C@@H]2O[C@H](CO)[C@@H](O)[C@H](O)[C@H]2O)c(O)cc1-c1oc2c(CC=C(C)C)c(O[C@@H]3O[C@H](CO)[C@@H](O)[C@H](O)[C@H]3O)cc(O)c2c(=O)c1O` [Compound 8, 8,6′-Diprenylquercetin 7,4′-O-β-D-diglucopyranoside], for which the “Water solubility, comparison in words” value is “higher solubility than metabolite 9” and the solubility at 10 min is more than 4000 µg/mL.

As to `CC(C)=CCc1cc(O)c(O)cc1-c1oc2c(CC=C(C)C)c(O)cc(O)c2c(=O)c1O` [Compound 3, 8,6′-diprenylquercetin], the concentration in solution (solubility at 10 min) came to 20 µg/mL (≈ 45.6 µM).

As to `CC(C)=CCc1cc(O[C@@H]2O[C@H](CO)[C@@H](O)[C@H](O)[C@H]2O)c(O)cc1-c1oc2cc(O)cc(O)c2c(=O)c1O` [Compound 7, 6′-Prenylquercetin 4′-O-β-D-glucopyranoside], the concentration in solution (solubility at 10 min) was 3640 µg/mL (≈ 6830 µM).

Consider `O=c1c(O)c(-c2ccc(O)c(O)c2)oc2cc(O)cc(O)c12` [Quercetin], for which the “Solubility (water solubility)” value (distilled water, room temperature, 4 mg in 1 mL, sonication 10 min, centrifugation, supernatant by HPLC) was 36 µg/mL (≈ 119 µM).

On to `CC(C)=CCc1c(O)cc(O)c2c(=O)c(O[C@@H]3O[C@H](CO)[C@@H](O)[C@H](O)[C@H]3O)c(-c3ccc(O)c(O)c3)oc12` [Compound 5, 8-Prenylquercetin 3-O-β-D-glucopyranoside], for which the solubility at 10 min was 385 µg/mL (≈ 723 µM).

The compound `CC(C)=CCc1cc(O)c(O)cc1-c1oc2cc(O[C@@H]3O[C@H](CO)[C@@H](O)[C@H](O)[C@H]3O)cc(O)c2c(=O)c1O` [Compound 6, 6′-Prenylquercetin 7-O-β-D-glucopyranoside] came in with a solubility at 10 min of 1980 µg/mL (≈ 3710 µM).

`CC(C)=CCc1cc(O)c(O)cc1-c1oc2c(CC=C(C)C)c(O[C@@H]3O[C@H](CO)[C@@H](O)[C@H](O)[C@H]3O)cc(O)c2c(=O)c1O` [Compound 9, 8,6′-Diprenylquercetin 7-O-β-D-glucopyranoside] showed a solubility at 10 min of 613 µg/mL (≈ 1020 µM).

On to `CC(C)=CCc1c(O[C@@H]2O[C@H](CO)[C@@H](O)[C@H](O)[C@H]2O)cc(O)c2c(=O)c(O)c(-c3ccc(O)c(O)c3)oc12` [Compound 4, 8-Prenylquercetin 7-O-β-D-glucopyranoside], for which the concentration in solution (solubility at 10 min) was 501 µg/mL (≈ 941 µM).

In the case of `CC(C)=CCc1cc(O)c(O)cc1-c1oc2cc(O)cc(O)c2c(=O)c1O` [Compound 2, 6′-prenylquercetin], the solubility at 10 min turned out to be 63 µg/mL (≈ 170 µM).
